Entries after “also recorded” stand apart in the source; their conditions may differ.
Key:
MHC-1 on DC2.4 cells = target: T1, MHC-1 on DC2.4 cells (Mus musculus, UniProt P01901); assay: Competitive inhibition of binding of OVA peptide 1 to MHC-1 on DC2.4 cells; set-up: species or system murine; details: peptide 2.5 μg/mL against OVA peptide 1 0.25 μg/mL, on ice 30 minutes
T1 construct: endogenous in cells; host or cells: DC2.4 murine dendritic cell line
T1 sequence (P01901 22-369): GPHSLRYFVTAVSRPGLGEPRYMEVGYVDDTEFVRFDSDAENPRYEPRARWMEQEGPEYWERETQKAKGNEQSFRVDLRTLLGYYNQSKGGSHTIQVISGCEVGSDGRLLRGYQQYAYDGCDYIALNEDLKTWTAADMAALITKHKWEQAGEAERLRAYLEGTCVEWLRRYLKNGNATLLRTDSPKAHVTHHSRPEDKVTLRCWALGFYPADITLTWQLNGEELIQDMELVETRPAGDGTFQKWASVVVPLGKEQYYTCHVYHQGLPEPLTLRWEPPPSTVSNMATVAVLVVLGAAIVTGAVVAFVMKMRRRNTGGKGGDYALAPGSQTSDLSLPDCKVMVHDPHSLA
T1 sequence (P01887 21-119 partner): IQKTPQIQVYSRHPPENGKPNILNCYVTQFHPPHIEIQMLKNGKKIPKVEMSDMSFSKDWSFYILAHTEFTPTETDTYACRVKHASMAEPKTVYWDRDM
Experimental: Murine dendritic cell line, DC2.4 cells, were detached from a dish, and suspended in 1.5 mL tubes at a concentration of 1.5×10^5 cells per […] of PBS.

[1] = system: antigen-retaining splenocytes (TRP2-9); assay: Induction of cytotoxic T lymphocytes in mice (in vivo CTL assay, flow cytometry), mTRP2 antigen; set-up: species or system C57BL/6 mice; details: antigen TRP2-9
Experimental: A CpG DNA(S)-peptide conjugate as an antigen was intracutaneously administered to mice (C57BL/6 mice (♂, 7 weeks old)). The dose of a CpG DNA(S)-peptide conjugate was 50, 200 or 1000 ng per mouse in terms of peptide (about 0.4, 1.7 or 8.5 μg in terms of CpG30(S)). After one week of administration, splenocytes were isolated from those mice of the same strain not receiving administration, and divided into two aliquots of 2.0×10^7 cells/mL. To one aliquot, a peptide as an antigen was added to a concentration of 10 μg/mL, and the mixture was left to stand for 90 minutes to prepare antigen-retaining splenocytes. The other aliquot of splenocytes with no peptide added was regarded as non-antigen-retaining splenocytes. Both of the antigen-retaining splenocytes and the non-antigen-retaining splenocytes were fluorescently modified with 5,6-carboxyfluorescein succinimidyl ester (CFSE). During this process, the concentration of CFSE was varied such that the fluorescence intensity of the antigen-retaining splenocytes (CFSE: 1 μm) was higher than that of the non-antigen-retaining splenocytes (CFSE: 0.1 μm).
After the lapse of 24 hours from the tail vein administration, splenocytes were isolated from the mice, and evaluated for induced antigen-specific cytotoxic T lymphocyte activity through flow cytometrically quantifying the percentages of antigen-retaining and non-antigen-retaining splenocytes to determine the amount of decrease in antigen-retaining splenocytes. For comparison's sake, other mice were administered PBS (phosphate-buffered saline) instead of a CpG DNA(S)-peptide conjugate, and were regarded as control groups. The control groups were subjected to flow cytometric analysis under the same conditions.
The dose of the conjugates administered was 200 ng per mouse in terms of peptide.
The second administration was performed after 10 days from the first administration. Both of the two doses were 200 ng per mouse in terms of peptide.

C-TRP2-9: CSVYDFFVWL (SEQ ID NO: 31); cysteine added to the N-terminus of TRP2-9 (C-TRP2-9)
Inhibitory activity against binding of OVA peptide 1 to MHC class I molecules (MHC-1 on DC2.4 cells): no inhibitory activity was observed

C-TRP2-8: CVYDFFVWL (SEQ ID NO: 32); cysteine added to N-terminus of amino acid residues 181 to 188 of mTRP2 (C-TRP2-8)
Decrease of average fluorescence intensity (OVA peptide 1-MHC-1 complexes on DC2.4 cells) (MHC-1 on DC2.4 cells): 23%

CpG30(S)a-mTRP2pep9: CpG30(S)a (SEQ ID NO: 6, phosphorothioate) conjugated via disulfide spacer to peptide C-TRP2-8 (CVYDFFVWL) (DNA gagcgttctcatcgactctcgagcgttctc; phosphorothioate; disulfide spacer conjugate; K3-30(a))
CTL-inducing ability (decrease in antigen-retaining splenocytes) ([1]; 200 ng per mouse in terms of peptide, intracutaneous, single dose): marked decrease in antigen-retaining splenocytes; also recorded: can induce potent CTL activity | CTL-inducing ability (decrease in antigen-retaining splenocytes) ([1]; dose not stated): high CTL-inducing ability | Dose dependency of CTL-inducing ability ([1]; doses of 50, 200 or 1000 ng per mouse in terms of peptide): dose dependency

CpG20(S)a-mTRP2pep9: CpG20(S)a (SEQ ID NO: 1) conjugated to peptide C-TRP2-8 (CVYDFFVWL) (DNA atcgactctcgagcgttctc; oligonucleotide-peptide conjugate; K3)
CTL-inducing ability (decrease in antigen-retaining splenocytes) ([1]; dose not stated): high CTL-inducing ability

Source: patent publication US12685780B2, “Immune inducer containing polynucleotide-peptide conjugate and pharmaceutical composition containing same” (The University of Kitakyushu, priority 2020, dated 2026)
